Measured values published in ChEMBL document CHEMBL1132776, “(E) -6-(1-alkyloxyiminoalkyl)-5,8-dimethoxy-1,4-naphthoquinones: synthesis, cytotoxic activity and antitumor activity” (2000).
≈ marks a conversion by molar mass, not a printed value.

Assays:
A549 = test: The compound was evaluated for antiproliferative activity against A549 cell line; type: functional; settings: Homo sapiens, read-out: ED50 (the source's name)
L1210 = test: The compound was evaluated for antiproliferative activity against L1210 cell line; type: functional; settings: Mus musculus, read-out: ED50 (the source's name)
Mus musculus = organism: Mus musculus; test: Survival ratio (SR) is the number of mice surviving after 80 days among 8 mice; type: functional
CCRF S-180 = test: Percent ratio of treated to control mice after intraperitoneal injection of 1x10E7 S180 cells for antitumor activity was determined; type: functional, Mus musculus

Compound	EC50 (A549) [µg/mL]	EC50 (L1210) [µg/mL]	Survival ratio (Mus musculus)	T/C (CCRF S-180) [%]
CCCO/N=C/c1cc(OC)c2c(c1OC)C(=O)C=CC2=O	> 10	0.107 (≈ 0.353 µM)	2	229
CCCCCCCCCCCCO/N=C/c1cc(OC)c2c(c1OC)C(=O)C=CC2=O	> 10	0.311 (≈ 0.724 µM)	0	119
CCCCCCCO/N=C/c1cc(OC)c2c(c1OC)C(=O)C=CC2=O	> 10	0.213 (≈ 0.593 µM)	5	355
CCCCCC/C(=N\OCCCCC)c1cc(OC)c2c(c1OC)C(=O)C=CC2=O	> 10	0.224 (≈ 0.539 µM)	5	363
CCCCCCCO/N=C(\CCCCCC)c1cc(OC)c2c(c1OC)C(=O)C=CC2=O	> 10	0.162 (≈ 0.365 µM)	5	375
CCCCCCCCCO/N=C(\CCCCCC)c1cc(OC)c2c(c1OC)C(=O)C=CC2=O	> 10	1.15 (≈ 2.43 µM)	0	96
CCCCCCCCCO/N=C/c1cc(OC)c2c(c1OC)C(=O)C=CC2=O	> 10	0.19 (≈ 0.49 µM)	5	355
CO/N=C/c1cc(OC)c2c(c1OC)C(=O)C=CC2=O	> 10	0.109 (≈ 0.396 µM)	2	318
CCCCCO/N=C/c1cc(OC)c2c(c1OC)C(=O)C=CC2=O	> 10	0.175 (≈ 0.528 µM)	5	388
CCCCCC/C(=N\OC)c1cc(OC)c2c(c1OC)C(=O)C=CC2=O	> 10	0.192 (≈ 0.534 µM)	5	323
CCCCCC/C(=N\OCCC)c1cc(OC)c2c(c1OC)C(=O)C=CC2=O	> 10	0.166 (≈ 0.428 µM)	5	369
CCCCCCCCCCCCO/N=C(\CCCCCC)c1cc(OC)c2c(c1OC)C(=O)C=CC2=O	> 10	0.193 (≈ 0.376 µM)	2	231
COc1cc(/C=N/OCc2ccccc2)c(OC)c2c1C(=O)C=CC2=O	> 10	0.264 (≈ 0.751 µM)	4	331
COc1cccc2c1C(=O)c1c(O)c3c(c(O)c1C2=O)C[C@@](O)(C(=O)CO)C[C@@H]3O[C@H]1C[C@H](N)[C@H](O)[C@H](C)O1 [DOXORUBICIN]	1.01 (≈ 1.86 µM)	0.016 (≈ 0.0294 µM)	3	315
